Measurements reported in patent US7192924B2, “Corticotropin releasing factor 2 receptor agonists” (priority 2002, dated 2007).
Peptide text beside a SMILES is read from it.

Key:
[1] = biological target: T1, CRF1R (Homo sapiens, UniProt P34998); test: CRF1R agonist activity (EC50, Emax), called comparative CRF binding; type: cell-based; conditions: read-out: CRF1R EC50
T1 sequence (P34998 24-415): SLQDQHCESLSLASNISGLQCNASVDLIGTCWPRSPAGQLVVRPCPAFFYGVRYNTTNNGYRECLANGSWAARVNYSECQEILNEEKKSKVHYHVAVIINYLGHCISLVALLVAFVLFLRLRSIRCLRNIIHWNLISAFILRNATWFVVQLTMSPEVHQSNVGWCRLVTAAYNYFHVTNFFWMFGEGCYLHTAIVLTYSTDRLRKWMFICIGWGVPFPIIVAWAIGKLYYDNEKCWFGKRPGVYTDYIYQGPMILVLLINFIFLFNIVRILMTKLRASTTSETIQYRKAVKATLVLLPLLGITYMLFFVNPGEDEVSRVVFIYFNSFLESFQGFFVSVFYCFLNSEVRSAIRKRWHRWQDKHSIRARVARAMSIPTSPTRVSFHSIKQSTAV
Source text: (§1) The pharmacological activity and selectivity of the peptides of present invention can be determined using published test procedures. See, e.g, U.S. patent application Ser. No. 09/799,978. Because CRF2R and CRF1R are homologous proteins, it is expected that a certain proportion of agonists for CRF2R will also function as agonists of CRF1R. As discussed above, activation of CRF1R induces activation of the HPA axis since increased corticosteroid production leads to skeletal muscle atrophy. In most cases in which an increase in muscle mass or function is desired, it is not desirable to activate the HPA axis.
(§2) Because it is desirable to discriminate binding between CRF2R, as compared with CRF1R, the assays described above may be conducted using a cell, or membrane from a cell, which expresses only CRF2R or the assays can be conducted with a recombinant source of CRF2R. Cells expressing both forms of CRFR may be modified using homologous recombination to inactivate or otherwise disable the CRF1R gene. Alternatively, if the source of CRFR contains more than one CRFR type, the background signal produced by the receptor which is not of interest must be subtracted from the signal obtained in the assay. […] Known antagonists of CRFRs include, but, are not limited to, antalarmin (CRF1R selective), antisauvagine-30 (CRF2R selective) and astressin (nonselective for CRF1R/CRF2R).
(§3) Cell-based assays include the steps of contacting cells which express CRF1R or CRF2R with a peptide of the present invention or control and measuring activation of the CRFR by measuring the expression or activity of components of the CRFR signal transduction pathways.
(§4) As described in the background section above, CRFRs appear to couple through several different pathways including Gαs, Gαq or Gαi, depending upon the cell type. It is thought that agonist activation of CRFR allows the receptor to signal via any of these pathways, provided that the necessary pathway components are present in the particular cell type. Thus, to assay a particular peptide of the present invention for CRFR activation, an assay can use any of the signal transduction pathways as the readout even if the relevant cell type for treatment, in vivo, couples CRFR to skeletal muscle atrophy via a different pathway. […] Assays for measuring activation of these signaling pathways are known in the art.
(§5) For example, after contact with a peptide of the present invention, lysates of the cells can be prepared and assayed for induction of cAMP. cAMP is induced in response to Gαs activation. Because Gαs is activated by receptors other than CRFR and because a test peptide may be exerting its effect through CRFRs or by another mechanism, two control comparisons are relevant for determining whether the peptide increases levels of cAMP via activation of a CRFR. One control compares the cAMP level of cells contacted with the peptide and the cAMP level of cells contacted with a control compound (i.e., the vehicle in which the peptide is dissolved).
(§6) In one example, cAMP induction is measured with the use of DNA constructs containing the cAMP responsive element linked to any of a variety of reporter genes can be introduced into cells expressing CRFRs. Such reporter genes include, but are not limited to, chloramphenicol acetyltransferase (CAT), luciferase, glucuronide synthetase, growth hormone, fluorescent proteins (e.g., Green Fluorescent Protein), or alkaline phosphatase. Following exposure of the cells to the peptide, the level of reporter gene expression can be quantitated to determine the peptide's ability to increase cAMP levels and thus determine the peptide's ability to activate the CRFR.
(§7) In addition to using cells expressing full length CRFRs, cells can be engineered which express CRFRs containing the ligand binding domain of the receptor coupled to, or physically modified to contain, reporter elements or to interact with signaling proteins.

[2] = biological target: T2, CRF2R (Homo sapiens, UniProt Q13324); test: CRF2R agonist activity (EC50, Emax), called comparative CRF binding; type: cell-based; conditions: read-out: CRF2R EC50
T2 sequence (Q13324 1-411): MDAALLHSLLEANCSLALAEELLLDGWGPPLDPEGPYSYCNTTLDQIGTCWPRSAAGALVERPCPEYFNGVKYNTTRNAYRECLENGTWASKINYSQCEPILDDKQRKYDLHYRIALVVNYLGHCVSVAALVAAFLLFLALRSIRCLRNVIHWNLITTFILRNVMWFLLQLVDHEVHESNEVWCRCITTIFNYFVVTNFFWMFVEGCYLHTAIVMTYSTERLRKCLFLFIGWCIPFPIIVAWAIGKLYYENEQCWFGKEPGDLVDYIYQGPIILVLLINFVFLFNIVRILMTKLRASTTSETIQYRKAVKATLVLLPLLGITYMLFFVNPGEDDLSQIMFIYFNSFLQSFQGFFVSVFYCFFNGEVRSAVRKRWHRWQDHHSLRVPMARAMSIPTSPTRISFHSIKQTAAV
Source text: as §1, §2, §3, §4, §5, §6, §7

Compound	EC50 [1] [nM]	EC50 [2] [nM]
CC[C@H](C)[C@H](N)C(=O)N[C@H](C(=O)N[C@@H](CC(C)C)C(=O)N[C@@H](CO)C(=O)N[C@@H](CC(C)C)C(=O)N[C@@H](CC(=O)O)C(=O)N[C@H](C(=O)N1CCC[C@H]1C(=O)N[C@H](C(=O)NCC(=O)N[C@@H](CC(C)C)C(=O)N[C@@H](CC(C)C)C(=O)N[C@@H](CCC(N)=O)C(=O)N[C@@H](CCC(=O)O)C(=O)N[C@@H](CC(C)C)C(=O)N[C@@H](CC(C)C)C(=O)N[C@@H](CCC(=O)O)C(=O)N[C@@H](CCSC)C(=O)N[C@@H](C)C(=O)N[C@@H](CCCNC(=N)N)C(=O)N[C@@H](C)C(=O)N[C@@H](CCC(=O)O)C(=O)N[C@@H](CCC(N)=O)C(=O)N[C@@H](CC(C)C)C(=O)N[C@@H](C)C(=O)N[C@@H](CCC(N)=O)C(=O)N[C@@H](CCC(N)=O)C(=O)N[C@@H](C)C(=O)N[C@@H](Cc1c[nH]cn1)C(=O)N[C@@H](CO)C(=O)N[C@@H](CC(N)=O)C(=O)N[C@@H](CCCNC(=N)N)C(=O)N[C@@H](CCCCN)C(=O)N[C@@H](CC(C)C)C(=O)N[C@@H](CCSC)C(=O)N[C@@H](CCC(=O)O)C(=O)N[C@H](C(=O)N[C@H](C(N)=O)[C@@H](C)CC)[C@@H](C)CC)[C@@H](C)CC)C(C)C)C(C)C [compound 1] (H-IVLSLDVPIGLLQELLEMARAEQLAQQAHSNRKLMEII-NH2; N-terminus assumed)	783	31.5
CC[C@H](C)[C@H](N)C(=O)N[C@H](C(=O)N[C@@H](CC(C)C)C(=O)N[C@@H](CO)C(=O)N[C@@H](CC(C)C)C(=O)N[C@@H](CC(=O)O)C(=O)N[C@H](C(=O)N1CCC[C@H]1C(=O)N[C@H](C(=O)NCC(=O)N[C@@H](CC(C)C)C(=O)N[C@@H](CC(C)C)C(=O)N[C@@H](CCC(N)=O)C(=O)N[C@H](C(=O)N[C@@H](CC(C)C)C(=O)N[C@@H](CC(C)C)C(=O)N[C@@H](CCC(=O)O)C(=O)N[C@@H](CCC(N)=O)C(=O)N[C@H](C(=O)N[C@@H](CCCCN)C(=O)N[C@@H](C)C(=O)N[C@@H](CC(=O)O)C(=O)N[C@@H](C)C(=O)N[C@@H](C)C(=O)N[C@@H](CCCNC(=N)N)C(=O)N[C@@H](CCC(=O)O)C(=O)N[C@@H](CCC(N)=O)C(=O)N[C@@H](C)C(=O)N[C@H](C(=O)N[C@H](C(=O)N[C@@H](CC(N)=O)C(=O)N[C@@H](C)C(=O)N[C@@H](CCCNC(=N)N)C(=O)N[C@H](C(=O)N[C@@H](CC(C)C)C(=O)N[C@@H](C)C(=O)N[C@@H](CCCNC(=N)N)C(=O)N[C@H](C(N)=O)C(C)C)[C@@H](C)CC)[C@@H](C)O)[C@@H](C)O)[C@@H](C)O)[C@@H](C)CC)[C@@H](C)CC)C(C)C)C(C)C [compound 108] (H-IVLSLDVPIGLLQILLEQTKADAAREQATTNARILARV-NH2; N-terminus assumed)	> 100	79
CC[C@H](C)[C@H](N)C(=O)N[C@H](C(=O)N[C@@H](CC(C)C)C(=O)N[C@@H](CO)C(=O)N[C@@H](CC(C)C)C(=O)N[C@@H](CC(=O)O)C(=O)N[C@H](C(=O)N1CCC[C@H]1C(=O)N[C@H](C(=O)NCC(=O)N[C@@H](CC(C)C)C(=O)N[C@@H](CC(C)C)C(=O)N[C@@H](CCC(N)=O)C(=O)N[C@H](C(=O)N[C@@H](CC(C)C)C(=O)N[C@@H](CC(C)C)C(=O)N[C@@H](CCC(=O)O)C(=O)N[C@@H](CCC(N)=O)C(=O)N[C@@H](CCC(=O)O)C(=O)N[C@@H](CCCNC(=N)N)C(=O)N[C@@H](CCC(N)=O)C(=O)N[C@@H](CCCNC(=N)N)C(=O)N[C@@H](C)C(=O)N[C@@H](C)C(=O)N[C@@H](CCCNC(=N)N)C(=O)N[C@@H](CCC(=O)O)C(=O)N[C@@H](CCC(N)=O)C(=O)N[C@@H](C)C(=O)N[C@H](C(=O)N[C@H](C(=O)N[C@@H](CC(N)=O)C(=O)N[C@@H](C)C(=O)N[C@@H](CCCNC(=N)N)C(=O)N[C@H](C(=O)N[C@@H](CC(C)C)C(=O)N[C@@H](C)C(=O)N[C@@H](CCCNC(=N)N)C(=O)N[C@H](C(N)=O)C(C)C)[C@@H](C)CC)[C@@H](C)O)[C@@H](C)O)[C@@H](C)CC)[C@@H](C)CC)C(C)C)C(C)C [compound 111] (H-IVLSLDVPIGLLQILLEQERQRAAREQATTNARILARV-NH2; N-terminus assumed)	> 100	11
CC[C@H](C)[C@H](N)C(=O)N[C@H](C(=O)N[C@@H](CC(C)C)C(=O)N[C@@H](CO)C(=O)N[C@@H](CC(C)C)C(=O)N[C@@H](CC(=O)O)C(=O)N[C@H](C(=O)N1CCC[C@H]1C(=O)N[C@H](C(=O)NCC(=O)N[C@@H](CC(C)C)C(=O)N[C@@H](CC(C)C)C(=O)N[C@@H](CCC(N)=O)C(=O)N[C@H](C(=O)N[C@@H](CC(C)C)C(=O)N[C@@H](CC(C)C)C(=O)N[C@@H](CCC(=O)O)C(=O)N[C@@H](CCC(N)=O)C(=O)N[C@@H](C)C(=O)N[C@@H](CCCNC(=N)N)C(=O)N[C@@H](CCC(N)=O)C(=O)N[C@@H](CCCNC(=N)N)C(=O)N[C@@H](C)C(=O)N[C@@H](C)C(=O)N[C@@H](CCCNC(=N)N)C(=O)N[C@@H](CCC(=O)O)C(=O)N[C@@H](CCC(N)=O)C(=O)N[C@@H](C)C(=O)N[C@H](C(=O)N[C@H](C(=O)N[C@@H](CC(N)=O)C(=O)N[C@@H](C)C(=O)N[C@@H](CCCNC(=N)N)C(=O)N[C@H](C(=O)N[C@@H](CC(C)C)C(=O)N[C@@H](C)C(=O)N[C@@H](CCCNC(=N)N)C(=O)N[C@H](C(N)=O)C(C)C)[C@@H](C)CC)[C@@H](C)O)[C@@H](C)O)[C@@H](C)CC)[C@@H](C)CC)C(C)C)C(C)C [compound 114] (H-IVLSLDVPIGLLQILLEQARQRAAREQATTNARILARV-NH2; N-terminus assumed)	> 100	3.42
CC[C@H](C)[C@H](N)C(=O)N[C@H](C(=O)N[C@@H](CC(C)C)C(=O)N[C@@H](CO)C(=O)N[C@@H](CC(C)C)C(=O)N[C@@H](CC(=O)O)C(=O)N[C@H](C(=O)N1CCC[C@H]1C(=O)N[C@H](C(=O)NCC(=O)N[C@@H](CC(C)C)C(=O)N[C@@H](CC(C)C)C(=O)N[C@@H](CCC(N)=O)C(=O)N[C@H](C(=O)N[C@@H](CC(C)C)C(=O)N[C@@H](CC(C)C)C(=O)N[C@@H](CCC(=O)O)C(=O)N[C@@H](CCC(N)=O)C(=O)N[C@@H](CCC(=O)O)C(=O)N[C@@H](CCCCN)C(=O)N[C@@H](CCC(N)=O)C(=O)N[C@@H](CCCNC(=N)N)C(=O)N[C@@H](C)C(=O)N[C@@H](C)C(=O)N[C@@H](CCCNC(=N)N)C(=O)N[C@@H](CCC(=O)O)C(=O)N[C@@H](CCC(N)=O)C(=O)N[C@@H](C)C(=O)N[C@H](C(=O)N[C@H](C(=O)N[C@@H](CC(N)=O)C(=O)N[C@@H](C)C(=O)N[C@@H](CCCNC(=N)N)C(=O)N[C@H](C(=O)N[C@@H](CC(C)C)C(=O)N[C@@H](C)C(=O)N[C@@H](CCCNC(=N)N)C(=O)N[C@H](C(N)=O)C(C)C)[C@@H](C)CC)[C@@H](C)O)[C@@H](C)O)[C@@H](C)CC)[C@@H](C)CC)C(C)C)C(C)C [compound 115] (H-IVLSLDVPIGLLQILLEQEKQRAAREQATTNARILARV-NH2; N-terminus assumed)	> 100	13.6
